According to ChEMBL document CHEMBL1135012, “Reductively activated disulfide prodrugs of paclitaxel” (Bioorg Med Chem Lett, 2002):

Legend:
[1] = The half-life period for the release of paclitaxel after cyclization was determined for the compound; assay type: ADME
[2] = Percentage tumor cure rate in when treated with 125 mg/Kg dose in athymic nude mice; assay type: functional, Mus musculus
[3] = Compound along with dithiothreitol (DTT) was evaluated for its cytotoxicity against L2987 lung carcinoma cells; assay type: functional, cell-based; conditions: Homo sapiens
[4] = Compound was evaluated for its cytotoxicity against L2987 lung carcinoma cells; assay type: functional, cell-based; conditions: Homo sapiens
[5] = Dose required for the compound to elicit the Antitumor activity: No effective activity; assay type: functional
[6] = Maximum Tolerated Dose required for the compound to regress the tumors for the Antitumor activity: No effective activity; assay type: functional

SMILES: CC(=O)O[C@H]1C(=O)[C@@]2(C)[C@H]([C@H](OC(=O)c3ccccc3)[C@]3(O)C[C@H](OC(=O)[C@H](OC(=O)C(C)(C)CCSSC[C@H](C)C(=O)N4CCC[C@@H]4C(=O)O)[C@@H](NC(=O)c4ccccc4)c4ccccc4)C(C)=C1C3(C)C)[C@]1(OC(C)=O)CO[C@@H]1C[C@@H]2O
- T1/2 [1]: 25 min
- Tumor cure [2]: 60%
- IC50 [3]: 2300 nM
- IC50 [4]: 130000 nM

SMILES: CC(=O)O[C@H]1C(=O)[C@@]2(C)[C@H]([C@H](OC(=O)c3ccccc3)[C@]3(O)C[C@H](OC(=O)[C@H](OC(=O)C(C)(C)CCSSC4OC(CO)C(O)C(O)C4O)C(NC(=O)c4ccccc4)c4ccccc4)C(C)=C1C3(C)C)[C@]1(OC(C)=O)CO[C@@H]1C[C@@H]2O (stereo partly drawn)
- T1/2 [1]: 12 min
- IC50 [3]: 200 nM
- Dose [5]: 85 mg/kg
- IC50 [4]: 5700 nM

SMILES: CC(=O)O[C@H]1C(=O)[C@@]2(C)[C@H]([C@H](OC(=O)c3ccccc3)[C@]3(O)C[C@H](OC(=O)[C@H](OC(=O)C(C)(C)CCSSc4ccccn4)[C@@H](NC(=O)c4ccccc4)c4ccccc4)C(C)=C1C3(C)C)[C@]1(OC(C)=O)CO[C@@H]1C[C@@H]2O
- T1/2 [1]: 4 min
- IC50 [3]: 200 nM
- Dose [5]: 125 mg/kg
- IC50 [4]: 6200 nM

SMILES: CC(=O)O[C@H]1C(=O)[C@@]2(C)[C@H]([C@H](OC(=O)c3ccccc3)[C@]3(O)C[C@H](OC(=O)[C@H](OC(=O)C(C)(C)CCSSCC(NC(=O)CCC(N)C(=O)O)C(=O)NCC(=O)O)[C@@H](NC(=O)c4ccccc4)c4ccccc4)C(C)=C1C3(C)C)[C@]1(OC(C)=O)CO[C@@H]1C[C@@H]2O (stereo partly drawn)
- T1/2 [1]: > 60 min
- IC50 [3]: 400 nM
- Dose [5]: 150 mg/kg
- IC50 [4]: 10100 nM

SMILES: CC(=O)O[C@H]1C(=O)[C@@]2(C)[C@H]([C@H](OC(=O)c3ccccc3)[C@]3(O)C[C@H](OC(=O)[C@H](O)[C@@H](NC(=O)c4ccccc4)c4ccccc4)C(C)=C1C3(C)C)[C@]1(OC(C)=O)CO[C@@H]1C[C@@H]2O [PACLITAXEL]
- Dose [6]: 30 mg/kg
- IC50 [4]: 200 nM
